A short description of data set [1]: Dermal pharmacokinetics in mini-pig skin. The format is in vivo. The settings on record: model cream and ointment formulations, without detectable plasma exposure. The text has this: The objective of this assay was to determine the epidermal, dermal and plasma pharmacokinetics of a test compound following a 24 hr exposure to intact mouse or mini-pig skin.
Twenty-four hours prior to dosing the hair was shaved from the back of 25 g male Balb/c mice exposing an area at of least 6 cm^2 (about 10% of body surface) and, in a separate experiment, of 10 kg Gottingen mini-pigs exposing an area of at least 450 cm^2 (about 10% of body surface). At time zero, following isoflurane anesthesia, the test compound was applied to the back of mice or mini-pigs at a dose of 25 μL/cm^2. The skin was covered with an adhesive cover to prevent loss of compound to the cage or bedding.
Following 24 h exposure, the backs were gently washed with soap and water to remove non-absorbed drug and patted dry. Immediately following this washing, blood was drawn by cardiac puncture from the mice and via venipuncture from the mini-pigs. The outer skin (stratum corneum) was then removed by adhesive tape stripping. Upon exposure of the epidermis a 0.5 cm punch biopsy was taken. The epidermis and dermis were quickly separated, weighed and snap frozen. […]
Epidermis and dermis samples were homogenized in 1:10 (w/v) water using a Covaris ultrasonic homogenizer. Samples were extracted in 3 volumes of acetonitrile and quantified against a standard curve via LC-MS analysis.

The next data set deals with T1, PAK4 (Homo sapiens, UniProt O96013).
T1 construct: made in house; host or cells: T7 phage in E. coli (BL21-derived) or HEK-293
Put plainly: Kinome screen, PAK4. Particulars: screened at 1 μM. The data set is classed as binding. The protocol: (§1) Kinase-tagged T7 phage strains were grown in parallel in 24-well blocks in an E. coli host derived from the BL21 strain. E. coli were grown to log-phase and infected with T7 phage from a frozen stock (multiplicity of infection=0.4) and incubated with shaking at 32° C. until lysis (90-150 minutes). The lysates were centrifuged (6,000×g) and filtered (0.2 μm) to remove cell debris. The remaining kinases were produced in HEK-293 cells and subsequently tagged with DNA for qPCR detection.
(§2) Streptavidin-coated magnetic beads were treated with biotinylated small molecule ligands for 30 minutes at room temperature to generate affinity resins for kinase assays. The liganded beads were blocked with excess biotin and washed with blocking buffer (SeaBlock (Pierce), 1% BSA, 0.05% Tween 20, 1 mM DTT) to remove unbound ligand and to reduce non-specific phage binding. […] Test compounds were prepared as 40× stocks in 100% DMSO and directly diluted into the assay. All reactions were performed in polypropylene 384-well plates in a final volume of 0.04 ml. […] The beads were then re-suspended in elution buffer (1×PBS, 0.05% Tween 20, 0.5 μM non-biotinylated affinity ligand) and incubated at room temperature with shaking for 30 minutes. The kinase concentration in the eluates was measured by qPCR.

Another data set deals with T2, PKAC-ALPHA (Homo sapiens, UniProt P17612).
T2 construct: made in house; host or cells: T7 phage in E. coli (BL21-derived) or HEK-293
Put plainly: Kinome screen, PKAC-ALPHA. The data set is classed as binding. The settings on record: screened at 1 μM. The protocol: as §1, §2

Another data set deals with T3, EPHB6 (Homo sapiens, UniProt O15197).
T3 construct: made in house; host or cells: T7 phage in E. coli (BL21-derived) or HEK-293
Put plainly: Kinome screen, EPHB6. The data set is classed as binding. Particulars: screened at 1 μM. The protocol: as §1, §2

In a further data set the target is T4, JAK1 (Homo sapiens, UniProt P23458).
T4 construct: GST; purchased Life Technologies
Put plainly: LanthaScreen JAK biochemical assay, JAK1. The settings on record: read-out: JAK 1 pKi (converted). How it is done:
A panel of four LanthaScreen JAK biochemical assays (JAK1, 2, 3 and Tyk2) were carried in a common kinase reaction buffer (50 mM HEPES, pH 7.5, 0.01% Brij-35, 10 mM MgCl2, and 1 mM EGTA). Recombinant GST-tagged JAK enzymes and a GFP-tagged STAT1 peptide substrate were obtained from Life Technologies.
Serially diluted compound was pre-incubated with each of the four JAK enzymes and the substrate in white 384-well microplates (Corning) at ambient temperature for 1 h. ATP was subsequently added to initiate the kinase reactions in 10 μL total volume, with 1% DMSO. […] The plates were allowed to incubate at ambient temperature for 1 h before being read on the EnVision reader (Perkin Elmer). Emission ratio signals (520 nm/495 nm) were recorded and utilized to calculate the percent inhibition values based on DMSO and background controls.
For dose-response analysis, percent inhibition data were plotted vs. compound concentrations, and IC50 values were determined from a 4-parameter robust fit model with the Prism software (GraphPad Software). Results were expressed as pIC50 (negative logarithm of IC50) and subsequently converted to pKi (negative logarithm of dissociation constant, Ki) using the Cheng-Prusoff equation.
In general terms: TR-FRET usually uses a lanthanide donor and a delayed reading to cut background.

Another data set has as its target T5, ALK (Homo sapiens, UniProt Q9UM73).
T5 construct: made in house; host or cells: T7 phage in E. coli (BL21-derived) or HEK-293
Put plainly: Kinome screen, ALK. The data set is classed as binding. Particulars: screened at 1 μM. The protocol:
as §1, §2

The test system of data set [2] is IL-2/anti-CD3 stimulated IFNγ in human PBMCs. Put plainly: Cellular JAK potency assay: inhibition of IL-2/anti-CD3 stimulated IFNγ in human PBMCs. The data set is classed as cell-based. The settings on record: PBMC, 24 h stimulation, read-out: pIC50, inhibition of IL-2/anti-CD3 stimulated IFNγ (converted). The protocol: The potency of the test compound for inhibition of interleukin-2 (IL-2)/anti-CD3 stimulated interferon gamma (IFNγ) was measured in human peripheral blood mononuclear cells (PBMCs) isolated from human whole blood (Stanford Blood Center). Because IL-2 signals through JAK, this assay provides a measure of JAK cellular potency.
(1) Human peripheral blood mononuclear cells (PBMC) were isolated from human whole blood of healthy donors using a ficoll gradient. Cells were cultured in a 37° C., 5% CO2 humidified incubator in RPMI (Life Technologies) supplemented with 10% Heat Inactivated Fetal Bovine Serum (FBS, Life Technologies), 2 mM Glutamax (Life Technologies), 25 mM HEPES (Life Technologies) and 1× Pen/Strep (Life Technologies). Cells were seeded at 200,000 cells/well in media (50 μL) and cultured for 1 h. The compound was serially diluted in DMSO and then diluted another 500-fold (to a 2× final assay concentration) in media. […]
(2) After cytokine stimulation, cells were centrifuged at 500 g for 5 min and supernatants removed and frozen at −80° C. To determine the inhibitory potency of test compounds in response to IL-2/anti-CD3, supernatant IFNγ concentrations were measured via ELISA (R&D Systems). IC50 values were determined from analysis of the inhibition curves of concentration of IFNγ vs compound concentration. Data are expressed as pIC50 (negative decadic logarithm IC50) values.

The target of another data set is T6, CDK9 (Homo sapiens, UniProt P50750).
T6 construct: made in house; host or cells: T7 phage in E. coli (BL21-derived) or HEK-293
Put plainly: Kinome screen, CDK9. The format is binding. The settings on record: screened at 1 μM. How it is done:
as §1, §2

Each structure is given as a SMILES string.

T3 sequence (O15197 32-1021): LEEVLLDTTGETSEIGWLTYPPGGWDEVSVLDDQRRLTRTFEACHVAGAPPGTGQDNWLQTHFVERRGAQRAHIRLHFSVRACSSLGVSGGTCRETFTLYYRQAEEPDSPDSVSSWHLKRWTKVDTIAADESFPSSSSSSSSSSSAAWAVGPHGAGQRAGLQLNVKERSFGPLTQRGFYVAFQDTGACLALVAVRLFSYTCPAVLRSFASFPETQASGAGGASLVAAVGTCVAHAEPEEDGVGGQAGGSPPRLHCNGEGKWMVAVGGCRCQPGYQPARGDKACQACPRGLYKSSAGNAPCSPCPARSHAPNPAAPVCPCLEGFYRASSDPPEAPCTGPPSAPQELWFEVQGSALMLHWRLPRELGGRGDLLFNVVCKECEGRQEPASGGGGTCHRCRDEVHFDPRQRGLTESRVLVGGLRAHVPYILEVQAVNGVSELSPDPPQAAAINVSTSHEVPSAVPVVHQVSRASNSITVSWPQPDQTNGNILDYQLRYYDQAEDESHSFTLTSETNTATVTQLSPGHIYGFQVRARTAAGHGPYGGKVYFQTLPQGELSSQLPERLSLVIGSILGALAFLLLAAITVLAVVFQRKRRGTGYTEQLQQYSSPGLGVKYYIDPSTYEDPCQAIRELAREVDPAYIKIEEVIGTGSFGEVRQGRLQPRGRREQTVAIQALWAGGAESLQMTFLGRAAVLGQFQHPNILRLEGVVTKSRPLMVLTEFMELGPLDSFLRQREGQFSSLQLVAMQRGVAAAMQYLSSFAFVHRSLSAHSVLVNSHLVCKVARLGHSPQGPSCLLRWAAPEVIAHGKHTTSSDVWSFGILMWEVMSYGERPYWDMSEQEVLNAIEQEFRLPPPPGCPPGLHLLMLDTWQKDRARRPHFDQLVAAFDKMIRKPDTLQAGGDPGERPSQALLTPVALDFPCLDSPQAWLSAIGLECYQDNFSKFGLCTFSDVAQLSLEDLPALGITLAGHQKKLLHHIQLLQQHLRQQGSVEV
T4 sequence (P23458 whole entry): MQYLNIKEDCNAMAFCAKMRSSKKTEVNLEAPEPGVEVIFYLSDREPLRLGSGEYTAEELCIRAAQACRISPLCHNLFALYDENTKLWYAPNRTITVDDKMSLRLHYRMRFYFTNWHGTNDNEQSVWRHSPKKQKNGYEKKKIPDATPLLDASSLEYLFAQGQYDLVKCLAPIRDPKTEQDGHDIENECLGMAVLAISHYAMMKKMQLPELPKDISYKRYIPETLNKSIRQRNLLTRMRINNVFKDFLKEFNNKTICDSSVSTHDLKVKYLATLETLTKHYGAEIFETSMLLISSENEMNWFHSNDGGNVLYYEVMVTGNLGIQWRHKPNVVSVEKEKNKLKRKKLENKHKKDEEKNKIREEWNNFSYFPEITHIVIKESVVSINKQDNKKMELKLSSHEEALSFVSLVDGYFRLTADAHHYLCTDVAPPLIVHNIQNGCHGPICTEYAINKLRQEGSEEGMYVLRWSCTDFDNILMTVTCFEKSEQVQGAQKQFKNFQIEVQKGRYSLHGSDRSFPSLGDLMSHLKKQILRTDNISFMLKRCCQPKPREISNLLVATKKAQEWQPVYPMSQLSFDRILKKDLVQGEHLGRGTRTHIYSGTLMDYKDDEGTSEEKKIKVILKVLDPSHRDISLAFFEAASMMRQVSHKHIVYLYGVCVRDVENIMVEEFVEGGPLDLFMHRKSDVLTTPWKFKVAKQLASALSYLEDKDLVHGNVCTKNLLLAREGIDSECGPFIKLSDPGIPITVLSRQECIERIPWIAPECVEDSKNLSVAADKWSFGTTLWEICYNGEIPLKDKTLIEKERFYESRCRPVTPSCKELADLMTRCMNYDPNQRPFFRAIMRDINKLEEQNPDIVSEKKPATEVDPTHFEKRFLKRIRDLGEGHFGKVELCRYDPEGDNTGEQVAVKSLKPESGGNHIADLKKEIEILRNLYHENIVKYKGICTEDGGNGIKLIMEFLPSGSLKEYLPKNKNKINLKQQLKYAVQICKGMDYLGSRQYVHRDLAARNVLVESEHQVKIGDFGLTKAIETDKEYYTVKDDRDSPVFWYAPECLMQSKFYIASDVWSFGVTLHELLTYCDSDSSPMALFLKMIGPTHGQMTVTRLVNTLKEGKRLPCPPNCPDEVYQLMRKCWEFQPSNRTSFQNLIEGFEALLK
T1 sequence (O96013 whole entry): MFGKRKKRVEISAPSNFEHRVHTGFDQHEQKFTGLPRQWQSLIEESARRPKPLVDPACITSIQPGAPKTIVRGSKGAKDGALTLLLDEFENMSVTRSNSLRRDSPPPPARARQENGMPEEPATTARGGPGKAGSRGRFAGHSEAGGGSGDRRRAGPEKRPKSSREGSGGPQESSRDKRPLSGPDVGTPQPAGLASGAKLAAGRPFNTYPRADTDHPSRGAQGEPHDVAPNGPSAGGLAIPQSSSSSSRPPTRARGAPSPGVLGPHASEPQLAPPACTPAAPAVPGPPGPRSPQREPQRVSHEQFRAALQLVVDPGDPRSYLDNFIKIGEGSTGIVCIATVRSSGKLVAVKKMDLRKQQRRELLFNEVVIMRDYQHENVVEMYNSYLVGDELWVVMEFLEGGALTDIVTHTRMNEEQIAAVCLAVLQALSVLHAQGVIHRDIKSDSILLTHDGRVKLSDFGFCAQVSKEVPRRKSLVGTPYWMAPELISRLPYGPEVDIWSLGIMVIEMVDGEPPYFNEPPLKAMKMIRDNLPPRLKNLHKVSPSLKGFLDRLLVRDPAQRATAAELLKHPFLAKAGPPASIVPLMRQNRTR
T6 sequence (P50750 whole entry): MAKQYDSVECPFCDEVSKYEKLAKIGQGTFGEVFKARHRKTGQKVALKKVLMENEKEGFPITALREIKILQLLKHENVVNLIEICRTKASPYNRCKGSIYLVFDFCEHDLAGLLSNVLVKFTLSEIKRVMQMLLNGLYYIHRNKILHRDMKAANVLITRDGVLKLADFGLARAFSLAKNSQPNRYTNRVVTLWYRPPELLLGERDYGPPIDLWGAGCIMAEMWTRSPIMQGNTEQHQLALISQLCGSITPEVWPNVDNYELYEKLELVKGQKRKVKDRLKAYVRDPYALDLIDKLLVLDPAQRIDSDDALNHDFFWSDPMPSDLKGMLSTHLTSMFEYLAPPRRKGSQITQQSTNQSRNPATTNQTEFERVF
T5 sequence (Q9UM73 19-1620): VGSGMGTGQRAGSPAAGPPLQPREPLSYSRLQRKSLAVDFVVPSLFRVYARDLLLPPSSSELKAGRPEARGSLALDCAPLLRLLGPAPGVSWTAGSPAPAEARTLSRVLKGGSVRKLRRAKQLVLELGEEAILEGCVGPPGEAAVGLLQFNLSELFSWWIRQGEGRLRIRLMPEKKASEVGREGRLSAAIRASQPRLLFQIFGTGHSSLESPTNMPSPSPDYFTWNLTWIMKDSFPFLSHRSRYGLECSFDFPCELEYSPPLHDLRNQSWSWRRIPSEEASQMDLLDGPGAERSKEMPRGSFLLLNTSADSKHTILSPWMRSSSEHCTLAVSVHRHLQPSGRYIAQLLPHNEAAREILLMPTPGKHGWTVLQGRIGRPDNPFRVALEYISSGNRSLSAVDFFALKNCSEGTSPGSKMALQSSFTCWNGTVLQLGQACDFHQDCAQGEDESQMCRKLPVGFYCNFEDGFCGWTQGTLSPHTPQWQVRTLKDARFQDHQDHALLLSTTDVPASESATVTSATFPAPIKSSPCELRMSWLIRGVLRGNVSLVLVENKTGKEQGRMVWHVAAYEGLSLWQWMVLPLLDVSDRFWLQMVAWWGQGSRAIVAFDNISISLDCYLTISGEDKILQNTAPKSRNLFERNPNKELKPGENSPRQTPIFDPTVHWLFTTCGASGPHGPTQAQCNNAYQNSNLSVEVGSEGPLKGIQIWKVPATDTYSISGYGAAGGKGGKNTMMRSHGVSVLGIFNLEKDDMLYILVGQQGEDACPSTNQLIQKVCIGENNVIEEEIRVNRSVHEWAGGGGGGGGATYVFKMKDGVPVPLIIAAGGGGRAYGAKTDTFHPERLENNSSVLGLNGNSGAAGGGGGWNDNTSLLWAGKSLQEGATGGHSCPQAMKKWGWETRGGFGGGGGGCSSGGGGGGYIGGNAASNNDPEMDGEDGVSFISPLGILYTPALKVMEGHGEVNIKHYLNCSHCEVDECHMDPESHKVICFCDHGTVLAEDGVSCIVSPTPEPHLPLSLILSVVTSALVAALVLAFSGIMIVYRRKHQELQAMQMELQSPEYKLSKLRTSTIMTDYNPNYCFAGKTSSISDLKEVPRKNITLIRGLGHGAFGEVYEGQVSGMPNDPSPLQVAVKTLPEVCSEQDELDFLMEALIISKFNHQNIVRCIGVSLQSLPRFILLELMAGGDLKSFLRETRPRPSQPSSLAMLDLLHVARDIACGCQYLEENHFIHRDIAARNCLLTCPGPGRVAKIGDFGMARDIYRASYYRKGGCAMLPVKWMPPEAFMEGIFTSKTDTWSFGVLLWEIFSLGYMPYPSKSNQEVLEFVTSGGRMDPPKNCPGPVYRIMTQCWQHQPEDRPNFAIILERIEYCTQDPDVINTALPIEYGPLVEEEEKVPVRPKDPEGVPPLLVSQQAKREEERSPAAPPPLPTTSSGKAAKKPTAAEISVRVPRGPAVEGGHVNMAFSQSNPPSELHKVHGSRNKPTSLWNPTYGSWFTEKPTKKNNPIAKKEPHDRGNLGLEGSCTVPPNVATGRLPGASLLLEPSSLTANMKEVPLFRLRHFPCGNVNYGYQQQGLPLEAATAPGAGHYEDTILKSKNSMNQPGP

In general, inhibition refers to the percentage by which the read-out fell short of the control. Read a high inhibition as strong suppression. In the case of `CCc1cc(O)c(F)cc1-c1cc(F)c2c(-c3nc4c([nH]3)CCN(C(=O)CN3CCOCC3)C4)n[nH]c2c1` [Compound 1, 1-(2-(6-(2-ethyl-5-fluoro-4-hydroxyphenyl)-4-fluoro-1H-indazol-3-yl)-1,4,6,7-tetrahydro-5H-imidazo[4,5-c]pyridin-5-yl)-2-morpholinoethan-1-one], in data set [1], the “duration of sustained dermal levels” value is given as “at least 7 days”. For the same compound, the inhibition at 1 µM turned out to be 93% against PAK4; 20% against PKAC-ALPHA; 88% against EPHB6; 75% against ALK; 9% against CDK9. Besides, the Ki at JAK1 was 0.1 nM. In addition, the IC50 in data set [2] was approximately 200 nM.

For the origin of these results see patent publication US10493077B2, “Fused imidazo-piperidine JAK inhibitor compound” (THERAVANCE BIOPHARMA R&D IP, LLC, priority 2017, dated 2019).
